Assay results taken from ChEMBL document CHEMBL5154822, “Novel inhibitors of AChE and Aβ aggregation with neuroprotective properties as lead compounds for the treatment of Alzheimer's disease” (Eur J Med Chem, 2022).
Activity calls are given as the source filed them. The rule behind the calls is not given here.

Tests used:
[1] = target: T1, Acetylcholinesterase (Mus musculus) (UniProt P21836); test: Inhibition of AChE in mouse cerebral cortex using acetylthiocholine iodide as substrate at 40 uM preincubated for 10 mins followed by substrate addition and measured for 180 secs by Ellman's spectrophotometric method; format: tissue-based; conditions: time 780.0 sec
T1 sequence (whole entry): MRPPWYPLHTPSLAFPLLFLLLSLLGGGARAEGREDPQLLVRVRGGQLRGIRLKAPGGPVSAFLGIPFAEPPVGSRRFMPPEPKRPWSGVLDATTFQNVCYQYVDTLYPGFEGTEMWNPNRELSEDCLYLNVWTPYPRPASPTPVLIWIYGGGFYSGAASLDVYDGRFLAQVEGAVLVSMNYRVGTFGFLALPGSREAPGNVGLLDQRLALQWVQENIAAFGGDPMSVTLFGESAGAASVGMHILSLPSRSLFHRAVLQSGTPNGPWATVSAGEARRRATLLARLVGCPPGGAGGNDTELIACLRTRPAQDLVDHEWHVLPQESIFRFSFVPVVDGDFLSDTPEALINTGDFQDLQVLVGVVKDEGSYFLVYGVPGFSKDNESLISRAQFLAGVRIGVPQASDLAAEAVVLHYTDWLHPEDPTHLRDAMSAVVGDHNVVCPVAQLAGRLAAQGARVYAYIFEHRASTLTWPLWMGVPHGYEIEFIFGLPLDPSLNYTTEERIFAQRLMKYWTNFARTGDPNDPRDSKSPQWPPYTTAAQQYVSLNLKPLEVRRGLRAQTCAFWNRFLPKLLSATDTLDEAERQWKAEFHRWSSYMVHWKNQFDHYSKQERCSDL

Acetylcholinesterase [2] = target: T2, Acetylcholinesterase (Mus musculus, UniProt P21836); test: Inhibition of AChE in mouse cerebral cortex using acetylthiocholine iodide as substrate preincubated for 10 mins followed by substrate addition and measured for 180 secs by Ellman's spectrophotometric method; format: tissue-based
T2 sequence (P21836 whole entry): T1 sequence (whole entry)

[3] = Ratio of drug concentration in brain to plasma in ICR mouse at 1 mg/kg, ig measured after 1 hr by LC/MS-MS analysis; format: ADME, organism-based; conditions: po, read-out: BPR
[4] = Drug concentration in ICR mouse brain at 1 mg/kg, ig measured after 4 hrs by LC/MS-MS analysis; format: ADME, organism-based; conditions: po, read-out: Ct
[5] = Drug concentration in ICR mouse plasma at 1 mg/kg, ig measured after 0.5 hrs by LC/MS-MS analysis; format: ADME, organism-based; conditions: po
[6] = Ratio of drug concentration in brain to plasma in ICR mouse at 1 mg/kg, ig measured after 0.5 hrs by LC/MS-MS analysis; format: ADME, organism-based; conditions: po, read-out: BPR
[7] = Drug concentration in ICR mouse plasma at 1 mg/kg, ig measured after 1 hr by LC/MS-MS analysis; format: ADME, organism-based; conditions: po
[8] = Drug concentration in ICR mouse plasma at 1 mg/kg, ig measured after 2 hrs by LC/MS-MS analysis; format: ADME, organism-based; conditions: po
[9] = Drug concentration in ICR mouse brain at 1 mg/kg, ig measured after 1 hr by LC/MS-MS analysis; format: ADME, organism-based; conditions: po, read-out: Ct
[10] = Drug concentration in ICR mouse brain at 1 mg/kg, ig measured after 2 hrs by LC/MS-MS analysis; format: ADME, organism-based; conditions: po, read-out: Ct
[11] = Ratio of drug concentration in brain to plasma in ICR mouse at 1 mg/kg, ig measured after 2 hrs by LC/MS-MS analysis; format: ADME, organism-based; conditions: po, read-out: BPR
[12] = Cytotoxicity against human SH-SY5Y cells assessed as maximum non-cytotoxic concentration by CellTiter-Glo luminescent assay; format: toxicity, cell-based; conditions: read-out: MNCC
[13] = Drug concentration in ICR mouse brain at 1 mg/kg, ig measured after 0.5 hrs by LC/MS-MS analysis; format: ADME, organism-based; conditions: po, read-out: Ct
[14] = Drug concentration in ICR mouse plasma at 1 mg/kg, ig measured after 0.25 hrs by LC/MS-MS analysis; format: ADME, organism-based; conditions: po
[15] = Drug concentration in ICR mouse brain at 1 mg/kg, ig measured after 0.25 hrs by LC/MS-MS analysis; format: ADME, organism-based; conditions: po, read-out: Ct
[16] = Ratio of drug concentration in brain to plasma in ICR mouse at 1 mg/kg, ig measured after 0.25 hrs by LC/MS-MS analysis; format: ADME, organism-based; conditions: po, read-out: BPR
[17] = Drug concentration in ICR mouse plasma at 1 mg/kg, ig measured after 4 hrs by LC/MS-MS analysis; format: ADME, organism-based; conditions: po
Acetylcholinesterase [18] = target: T2, Acetylcholinesterase; test: Mixed-type inhibition of AChE in mouse cerebral cortex using acetylthiocholine iodide as substrate by double reciprocal Lineweaver-Burk plot analysis; format: tissue-based
[19] = Ratio of drug concentration in brain to plasma in ICR mouse at 1 mg/kg, ig measured after 4 hrs by LC/MS-MS analysis; format: ADME, organism-based; conditions: po, read-out: BPR
SH-SY5Y [20] = test: Neuroprotective activity in human SH-SY5Y cells assessed as inhibition of okadaic acid-induced mitochondrial dysfunction by measuring increase in red-to-green fluorescence intensity ratio pretreated for 24 hrs followed by okadaic acid addition for 24 hrs by JC-1 dye based fluorescence analysis; format: functional, cell-based; conditions: dose 0.5-5 µM, time 48.0 hrs, DDE = dose-dependent effect
SH-SY5Y [21] = test: Neuroprotective activity in human SH-SY5Y differentiated neuronal cells assessed as inhibition of GA-induced neurite shortening by measuring increase in axon length at 0.5 uM by laser confocal microscope; format: functional, cell-based
SH-SY5Y [22] = test: Neuroprotective activity in human SH-SY5Y differentiated neuronal cells assessed as inhibition of GA-induced cell death by measuring increase in cell viability at 0.5 to 5 uM measured after 24 hrs by MTT assay; format: functional, cell-based; conditions: dose 0.5-5 µM
Mus musculus [23] = test: Antialzheimer activity against scopolamine-induced cognitive deficit ICR mouse model assessed as improvement in memory impairment by measuring reduction in number of errors at 5 mg/kg, ig by step-through passive avoidance test; format: functional, organism-based
Mus musculus [24] = test: In vivo inhibition of AChE in ICR mouse hippocampus using acetylthiocholine iodide as substrate at 10 mg/kg, ig measured after 1 hr by microplate reader analysis; format: functional, organism-based
SH-SY5Y [25] = test: Neuroprotective activity in human SH-SY5Y differentiated neuronal cells assessed as inhibition of GA-induced axon morphology defects at 0.5 uM by laser confocal microscope; format: functional, cell-based
SH-SY5Y [26] = test: Antioxidant activity against okadaic acid-induced ROS generation in human SH-SY5Y cells assessed as reduction in DCF fluorescence intensity at 5 uM pretreated for 24 hrs followed by okadaic acid addition for 24 hrs by DCFH-DA dye based fluorescence analysis; format: functional, cell-based; conditions: time 48.0 hrs
Mus musculus [27] = test: In vivo inhibition of AChE in ICR mouse cerebral cortex using acetylthiocholine iodide as substrate at 10 mg/kg, ig measured after 1 hr by microplate reader analysis; format: functional, organism-based
Mus musculus [28] = test: In vivo inhibition of AChE in ICR mouse hippocampus using acetylthiocholine iodide as substrate at 4 mg/kg, ig measured after 1 hr by microplate reader analysis; format: functional, organism-based
[29] = target: Acetylcholinesterase (Homo sapiens) (UniProt P22303); test: Inhibition of AChE in glyceraldehyde-exposed human SH-SY5Y differentiated neuronal cells using acetylthiocholine as substrate at 50 nM by Ellman's spectrophotometric method; format: cell-based
Acetylcholinesterase (Homo sapiens), sequence (P22303 whole entry): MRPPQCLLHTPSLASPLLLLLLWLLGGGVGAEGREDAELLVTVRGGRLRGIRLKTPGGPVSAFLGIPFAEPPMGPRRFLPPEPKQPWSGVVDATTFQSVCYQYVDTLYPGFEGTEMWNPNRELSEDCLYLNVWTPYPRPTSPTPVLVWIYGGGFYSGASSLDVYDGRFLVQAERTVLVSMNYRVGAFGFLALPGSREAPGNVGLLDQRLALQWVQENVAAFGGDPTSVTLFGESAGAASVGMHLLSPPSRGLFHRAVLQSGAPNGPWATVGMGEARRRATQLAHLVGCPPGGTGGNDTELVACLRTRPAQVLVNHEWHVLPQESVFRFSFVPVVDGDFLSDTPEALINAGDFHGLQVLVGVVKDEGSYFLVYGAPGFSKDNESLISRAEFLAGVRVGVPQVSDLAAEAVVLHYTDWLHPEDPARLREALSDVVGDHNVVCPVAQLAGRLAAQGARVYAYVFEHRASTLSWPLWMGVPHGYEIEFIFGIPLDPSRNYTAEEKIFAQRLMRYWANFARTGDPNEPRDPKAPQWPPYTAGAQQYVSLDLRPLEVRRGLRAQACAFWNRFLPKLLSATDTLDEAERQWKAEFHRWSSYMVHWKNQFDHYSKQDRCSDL

SH-SY5Y [30] = test: Neuroprotective activity in human SH-SY5Y differentiated neuronal cells assessed as inhibition of GA-induced axon morphology defects at 5 uM by laser confocal microscope; format: functional, cell-based
Mus musculus [31] = test: In vivo inhibition of AChE in ig dosed ICR mouse hippocampus using acetylthiocholine iodide as substrate and measured after 1 hr by microplate reader analysis; format: functional, organism-based; conditions: dose 1-4 mg/kg, DDE = dose-dependent effect
Mus musculus [32] = test: Antialzheimer activity against scopolamine-induced cognitive deficit ICR mouse model assessed as improvement in memory impairment by measuring reduction in number of errors at 0.1 to 0.3 mg/kg, ig by step-through passive avoidance test; format: functional, organism-based; conditions: dose 0.1-0.3 mg/kg
Mus musculus [33] = test: In vivo inhibition of AChE in ICR mouse cerebral cortex using acetylthiocholine iodide as substrate at 4 mg/kg, ig measured after 1 hr by microplate reader analysis; format: functional, organism-based
SH-SY5Y [34] = test: Neuroprotective activity in human SH-SY5Y differentiated neuronal cells assessed as inhibition of GA-induced neurite shortening by measuring increase in axon length at 5 uM by laser confocal microscope; format: functional, cell-based
Mus musculus [35] = test: In vivo inhibition of AChE in ig dosed ICR mouse cerebral cortex using acetylthiocholine iodide as substrate and measured after 1 hr by microplate reader analysis; format: functional, organism-based; conditions: dose 1-4 mg/kg, DDE = dose-dependent effect
[36] = target: Acetylcholinesterase (Homo sapiens) (UniProt P22303); test: Inhibition of AChE in human SH-SY5Y differentiated neuronal cells assessed as inhibition of GA-induced tau hyperphosphorylation at Ser396 residue at 10 nM by ELISA; format: cell-based

## COc1cc2cc(CC3CCN(Cc4ccccc4)CC3)sc2cc1OC
[1]
  inhibition: 46.6%

## COc1cc2c(cc1OC)S(=O)(=O)C(CC1(F)CCN(Cc3cccc(C)c3)CC1)C2 (centres undefined)
Acetylcholinesterase [2]
  IC50: 3.8 nM

## COc1cc2c(cc1OC)S(=O)(=O)/C(=C/C1CCN(Cc3ccccc3)CC1)CCC2
[1]
  inhibition: 32.8%

## COc1cc2c(cc1OC)S(=O)(=O)C(F)(CC1CCN(Cc3cccc(F)c3)CC1)C2 (centres undefined) [listing 1 of 2 here]
[3]
  Kp at 1 h: 6.33
[4]
  concentration at 4 h: 21.7 ng/mL
[5]
  concentration at 0.5 h: 3.42 ng/mL
[6]
  Kp at 0.5 h: 5.24
[7]
  concentration at 1 h: 3.48 ng/mL
Acetylcholinesterase [2]
  IC50: 2.4 nM
[8]
  concentration at 2 h: 2.59 ng/mL
[9]
  concentration at 1 h: 21.9 ng/mL
[10]
  concentration at 2 h: 21.8 ng/mL
[11]
  Kp at 2 h: 8.4
[12]
  MNTC: 10 µM
[13]
  concentration at 0.5 h: 18.1 ng/mL
[14]
  concentration at 0.25 h: 2.89 ng/mL
[15]
  concentration at 0.25 h: 10.6 ng/mL
[16]
  Kp at 0.25 h: 4.17
[17]
  concentration at 4 h: 2.7 ng/mL
Acetylcholinesterase [18]
  Ki: 0.4 nM
[19]
  Kp at 4 h: 8.47

## COc1cc2c(cc1OC)S(=O)(=O)C(CC1CCN(Cc3ccc(F)c(Cl)c3)CC1)C2 (centres undefined)
Acetylcholinesterase [2]
  IC50: 11.5 nM

## COc1cc2c(cc1OC)S(=O)(=O)C(CC1CCN(Cc3ccccc3F)CC1)C2 (centres undefined)
Acetylcholinesterase [2]
  IC50: 11.5 nM

## COc1cc2c(cc1OC)C(=O)C(CC1CCN(Cc3ccccc3)CC1)C2 (centres undefined) [DONEPEZIL]
SH-SY5Y [20]
  Activity: Dde
SH-SY5Y [21]
  Activity: Active
SH-SY5Y [22]
  Activity: Active
Mus musculus [23]
  Activity: Active
Mus musculus [24]
  inhibition: Active
[12]
  MNTC: 100 µM
SH-SY5Y [25]
  Activity: Active
SH-SY5Y [26]
  Activity: Active
Mus musculus [27]
  inhibition: Active

## COc1cc2c(cc1OC)S(=O)(=O)C(CC1CCN(Cc3ccccc3)CC1)=C2
Acetylcholinesterase [2]
  IC50: 317 nM

## COc1cc2c(cc1OC)S(=O)(=O)C(CC1(F)CCN(Cc3cccc(Cl)c3)CC1)C2 (centres undefined)
Acetylcholinesterase [2]
  IC50: 5 nM

## COc1ccc(S(=O)(=O)/C=C/C2CCN(Cc3ccccc3)CC2)cc1OC
Acetylcholinesterase [2]
  IC50: 67.6 nM

## COc1cc2c(cc1OC)S(=O)(=O)C(CC1(F)CCN(Cc3ccc(F)c(Cl)c3)CC1)C2 (centres undefined)
Acetylcholinesterase [2]
  IC50: 12.9 nM

## COc1cc2c(cc1OC)S(=O)(=O)C(F)(CC1CCN(Cc3cccc(F)c3)CC1)C2 (centres undefined) [listing 2 of 2 here]
SH-SY5Y [20]
  Activity: Dde
Mus musculus [28]
  inhibition: Active
[29]
  inhibition: Active
SH-SY5Y [30]
  Activity: Active
Mus musculus [31]
  inhibition: Dde
SH-SY5Y [21]
  Activity: Active
Mus musculus [32]
  Activity: Active
SH-SY5Y [22]
  Activity: Active
Mus musculus [33]
  inhibition: Active
SH-SY5Y [25]
  Activity: Active
SH-SY5Y [34]
  Activity: Active
SH-SY5Y [26]
  Activity: Active
Mus musculus [35]
  inhibition: Dde
[36]
  inhibition: Active

## COc1cc2c(cc1OC)S(=O)(=O)C(CC1(F)CCN(Cc3ccccc3F)CC1)C2 (centres undefined)
Acetylcholinesterase [2]
  IC50: 8.5 nM

## COc1cc2c(cc1OC)S(=O)(=O)C(CC1(F)CCN(Cc3ccc(F)cc3F)CC1)C2 (centres undefined)
Acetylcholinesterase [2]
  IC50: 7.1 nM

## COc1cc2c(cc1OC)S(=O)(=O)C(CC1CCN(Cc3ccccc3)CC1)C2 (centres undefined)
Acetylcholinesterase [2]
  IC50: 4.4 nM

## COc1cc2c(cc1OC)S(=O)(=O)C(CC1CCN(Cc3cccc(F)c3)CC1)C2 (centres undefined)
Acetylcholinesterase [2]
  IC50: 4.4 nM
